Laboratory results from ChEMBL document CHEMBL1201862, “PubChem BioAssay data set” (2004).
One block for each molecule: values may come before it. Active and inactive are the calls of the source.

Columns and labels:
[1] = target: Procathepsin L (Homo sapiens, UniProt P07711)
[2] = tested on: H9c2; test: cells; type: functional, cell-based; conditions: Rattus norvegicus, H9c2, Myocardium;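 note: confirmatory concentration-response retest of ultra-high-throughput screening hits for modulation of myocardial damage; cell death induced by hydrogen peroxide oxidative stress; compound pretreatment for 60 min then peroxide exposure for 2 h; potency is for protecting the cells against peroxide damage rather than for killing them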
[3] = target: T1, Aspartyl aminopeptidase (Plasmodium falciparum 3D7, UniProt Q8I2J3)
T1 sequence (Q8I2J3 whole entry): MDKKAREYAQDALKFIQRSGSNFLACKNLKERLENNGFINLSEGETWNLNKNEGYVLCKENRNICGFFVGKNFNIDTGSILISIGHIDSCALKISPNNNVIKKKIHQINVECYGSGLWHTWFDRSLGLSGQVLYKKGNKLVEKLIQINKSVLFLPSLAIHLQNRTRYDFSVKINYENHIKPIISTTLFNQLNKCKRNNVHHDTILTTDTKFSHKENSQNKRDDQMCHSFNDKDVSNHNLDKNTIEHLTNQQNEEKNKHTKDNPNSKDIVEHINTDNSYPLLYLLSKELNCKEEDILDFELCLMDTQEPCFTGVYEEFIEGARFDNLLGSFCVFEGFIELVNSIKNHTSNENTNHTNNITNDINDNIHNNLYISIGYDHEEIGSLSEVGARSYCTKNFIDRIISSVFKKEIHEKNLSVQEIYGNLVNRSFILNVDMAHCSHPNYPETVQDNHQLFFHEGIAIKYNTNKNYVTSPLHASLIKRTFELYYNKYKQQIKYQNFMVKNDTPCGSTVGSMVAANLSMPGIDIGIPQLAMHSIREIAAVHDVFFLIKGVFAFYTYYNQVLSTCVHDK

[4] = target: Photoreceptor-specific nuclear receptor (Homo sapiens, UniProt Q9Y5X4); type: functional;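 note: potency for compounds that break the NR2E3 corepressor complex and count as activators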
[5] = target: Peroxisome proliferator-activated receptor gamma/Nuclear receptor corepressor 2 (Homo sapiens, UniProt P37231+Q9Y618); type: functional
[6] = tested on: Streptococcus; test: Group A Streptococcus viability loss, dose response, counter-screen for streptokinase expression inhibitor project, luminescence, BacTiterGlo (AID 1915); type: functional, organism-based;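 note: potency for reduction of bacterial viability or growth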
[7] = target: NAD-dependent protein deacylase sirtuin-5, mitochondrial (Homo sapiens, UniProt Q9NXA8); test: SIRT5 desuccinylase inhibitors, dose response, biochemical, fluorescence imaging, cherry-pick, set 5 (AID 720591);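 note: desuccinylation of succinyl peptide AMC substrate read as fluorescence after trypsin release; potency of inhibitors that lower fluorescence and may act on trypsin instead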
[8] = tested on: Streptococcus sp. 'group A'; test: growth inhibition of control SK(-) GAS strain, dose response, counter-screen for streptokinase expression inhibitor project, luminescence, kanamycin, BacTiterGlo, confirmation (AID 1900); type: functional, organism-based
[9] = target: T2, Mucolipin-3 (Homo sapiens, UniProt Q8TDD5); test: Dose response cell-based high-throughput screening assay for agonists of the transient receptor potential channel ML3 (TRPML3). [Related pubchem assays: 1526, 1424, 1448 ]; type: functional
T2 sequence (Q8TDD5 whole entry): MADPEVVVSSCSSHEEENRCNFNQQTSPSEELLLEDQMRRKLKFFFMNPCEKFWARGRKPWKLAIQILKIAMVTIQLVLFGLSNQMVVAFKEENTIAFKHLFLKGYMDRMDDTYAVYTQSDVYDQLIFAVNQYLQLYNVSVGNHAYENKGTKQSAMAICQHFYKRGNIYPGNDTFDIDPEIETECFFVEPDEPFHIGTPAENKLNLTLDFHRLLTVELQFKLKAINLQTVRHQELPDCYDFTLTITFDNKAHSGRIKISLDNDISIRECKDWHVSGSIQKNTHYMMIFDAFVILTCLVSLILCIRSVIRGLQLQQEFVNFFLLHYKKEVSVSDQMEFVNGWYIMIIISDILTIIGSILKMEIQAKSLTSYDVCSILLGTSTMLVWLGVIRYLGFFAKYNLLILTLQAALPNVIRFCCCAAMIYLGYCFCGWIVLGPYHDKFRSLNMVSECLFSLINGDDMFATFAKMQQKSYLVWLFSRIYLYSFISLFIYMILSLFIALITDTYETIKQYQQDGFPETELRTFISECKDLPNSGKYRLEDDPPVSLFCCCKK

[10] = target: T3, Ion channel NompC (Danio rerio, UniProt Q7T1G6); test: TRPML3 and TRPML2 channel agonists, cell-based, patch clamp, Fura-2 profiling panel, panel member TRPN1 Dose Response (AID 2116)
[11] = target: T3, Ion channel NompC; test: Fluorescence counterscreen assay for TRPML3 agonists: dose response cell-based high-throughput screening assay to identify agonists of the transient receptor potential channel N1 (TRPN1). [Related pubchem assays: 1526, 1424, 1448 ]; type: functional
[12] = target: Cytochrome P450 2C9 (Homo sapiens, UniProt P11712); conditions: Potency

T3 sequence (Q7T1G6 whole entry): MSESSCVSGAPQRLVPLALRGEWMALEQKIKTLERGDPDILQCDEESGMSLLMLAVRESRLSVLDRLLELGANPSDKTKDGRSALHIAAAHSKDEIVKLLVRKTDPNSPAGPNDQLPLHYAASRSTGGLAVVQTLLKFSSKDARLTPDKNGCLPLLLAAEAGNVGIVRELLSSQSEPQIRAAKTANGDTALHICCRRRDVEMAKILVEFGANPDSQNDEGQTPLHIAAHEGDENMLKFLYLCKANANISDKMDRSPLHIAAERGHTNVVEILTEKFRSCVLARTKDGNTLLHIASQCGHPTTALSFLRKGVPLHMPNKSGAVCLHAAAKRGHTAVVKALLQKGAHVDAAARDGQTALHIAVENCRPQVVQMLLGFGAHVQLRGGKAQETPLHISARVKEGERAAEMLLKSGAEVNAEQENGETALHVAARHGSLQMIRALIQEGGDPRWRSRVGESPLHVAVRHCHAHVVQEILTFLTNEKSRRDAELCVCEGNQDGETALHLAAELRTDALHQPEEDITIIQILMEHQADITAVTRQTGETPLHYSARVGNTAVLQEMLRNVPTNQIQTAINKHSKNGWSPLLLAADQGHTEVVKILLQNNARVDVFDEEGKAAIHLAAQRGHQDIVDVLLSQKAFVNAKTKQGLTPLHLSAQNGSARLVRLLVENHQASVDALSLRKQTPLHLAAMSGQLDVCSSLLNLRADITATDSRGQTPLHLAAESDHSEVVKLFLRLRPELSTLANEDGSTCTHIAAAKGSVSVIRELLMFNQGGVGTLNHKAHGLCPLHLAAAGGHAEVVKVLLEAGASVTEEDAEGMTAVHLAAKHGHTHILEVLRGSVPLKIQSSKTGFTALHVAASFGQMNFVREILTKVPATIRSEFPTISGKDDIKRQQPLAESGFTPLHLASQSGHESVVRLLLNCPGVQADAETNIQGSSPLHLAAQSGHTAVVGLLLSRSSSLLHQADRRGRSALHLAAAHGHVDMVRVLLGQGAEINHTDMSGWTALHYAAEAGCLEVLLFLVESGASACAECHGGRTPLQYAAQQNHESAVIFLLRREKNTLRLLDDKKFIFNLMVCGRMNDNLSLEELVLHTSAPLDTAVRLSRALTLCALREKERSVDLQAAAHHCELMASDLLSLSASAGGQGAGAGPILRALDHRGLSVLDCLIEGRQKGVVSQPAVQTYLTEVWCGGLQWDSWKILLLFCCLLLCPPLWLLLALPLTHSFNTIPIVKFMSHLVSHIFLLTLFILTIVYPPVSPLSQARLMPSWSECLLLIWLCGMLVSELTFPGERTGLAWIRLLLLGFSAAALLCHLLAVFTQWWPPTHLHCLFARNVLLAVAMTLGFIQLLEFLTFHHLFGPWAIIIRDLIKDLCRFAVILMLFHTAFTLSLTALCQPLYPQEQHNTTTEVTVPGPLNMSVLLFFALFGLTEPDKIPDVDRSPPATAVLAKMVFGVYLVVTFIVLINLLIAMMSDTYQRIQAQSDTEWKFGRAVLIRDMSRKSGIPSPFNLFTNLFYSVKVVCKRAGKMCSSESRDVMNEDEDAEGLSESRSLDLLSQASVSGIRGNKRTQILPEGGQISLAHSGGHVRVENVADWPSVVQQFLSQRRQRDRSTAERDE
Chain of Photoreceptor-specific nuclear receptor (Q9Y5X4 whole entry): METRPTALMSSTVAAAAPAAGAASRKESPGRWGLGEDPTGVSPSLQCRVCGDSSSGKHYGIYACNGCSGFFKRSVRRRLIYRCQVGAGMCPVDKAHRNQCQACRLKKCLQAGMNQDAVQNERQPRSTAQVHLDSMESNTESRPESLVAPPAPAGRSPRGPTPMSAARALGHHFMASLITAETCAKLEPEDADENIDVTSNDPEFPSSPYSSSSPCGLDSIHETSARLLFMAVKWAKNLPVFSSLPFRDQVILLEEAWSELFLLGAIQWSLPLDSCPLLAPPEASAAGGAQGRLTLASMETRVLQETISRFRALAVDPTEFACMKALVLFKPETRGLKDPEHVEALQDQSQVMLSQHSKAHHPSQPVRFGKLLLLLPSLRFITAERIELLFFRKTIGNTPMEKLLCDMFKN
Chain of Peroxisome proliferator-activated receptor gamma/Nuclear receptor corepressor 2 (P37231 whole entry): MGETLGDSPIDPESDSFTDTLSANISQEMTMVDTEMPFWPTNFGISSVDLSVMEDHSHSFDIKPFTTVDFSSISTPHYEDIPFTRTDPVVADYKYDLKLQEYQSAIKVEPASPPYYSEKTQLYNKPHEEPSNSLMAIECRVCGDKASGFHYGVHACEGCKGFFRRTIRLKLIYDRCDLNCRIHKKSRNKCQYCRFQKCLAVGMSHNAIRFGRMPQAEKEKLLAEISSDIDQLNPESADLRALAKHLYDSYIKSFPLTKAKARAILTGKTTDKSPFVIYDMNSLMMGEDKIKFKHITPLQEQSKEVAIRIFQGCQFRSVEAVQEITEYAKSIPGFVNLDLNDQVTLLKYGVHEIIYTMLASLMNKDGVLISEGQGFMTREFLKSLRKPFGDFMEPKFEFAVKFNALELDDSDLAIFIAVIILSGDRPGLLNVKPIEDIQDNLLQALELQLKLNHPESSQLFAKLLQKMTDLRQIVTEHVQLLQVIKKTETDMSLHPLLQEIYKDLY
Chain of Peroxisome proliferator-activated receptor gamma/Nuclear receptor corepressor 2 (Q9Y618 whole entry): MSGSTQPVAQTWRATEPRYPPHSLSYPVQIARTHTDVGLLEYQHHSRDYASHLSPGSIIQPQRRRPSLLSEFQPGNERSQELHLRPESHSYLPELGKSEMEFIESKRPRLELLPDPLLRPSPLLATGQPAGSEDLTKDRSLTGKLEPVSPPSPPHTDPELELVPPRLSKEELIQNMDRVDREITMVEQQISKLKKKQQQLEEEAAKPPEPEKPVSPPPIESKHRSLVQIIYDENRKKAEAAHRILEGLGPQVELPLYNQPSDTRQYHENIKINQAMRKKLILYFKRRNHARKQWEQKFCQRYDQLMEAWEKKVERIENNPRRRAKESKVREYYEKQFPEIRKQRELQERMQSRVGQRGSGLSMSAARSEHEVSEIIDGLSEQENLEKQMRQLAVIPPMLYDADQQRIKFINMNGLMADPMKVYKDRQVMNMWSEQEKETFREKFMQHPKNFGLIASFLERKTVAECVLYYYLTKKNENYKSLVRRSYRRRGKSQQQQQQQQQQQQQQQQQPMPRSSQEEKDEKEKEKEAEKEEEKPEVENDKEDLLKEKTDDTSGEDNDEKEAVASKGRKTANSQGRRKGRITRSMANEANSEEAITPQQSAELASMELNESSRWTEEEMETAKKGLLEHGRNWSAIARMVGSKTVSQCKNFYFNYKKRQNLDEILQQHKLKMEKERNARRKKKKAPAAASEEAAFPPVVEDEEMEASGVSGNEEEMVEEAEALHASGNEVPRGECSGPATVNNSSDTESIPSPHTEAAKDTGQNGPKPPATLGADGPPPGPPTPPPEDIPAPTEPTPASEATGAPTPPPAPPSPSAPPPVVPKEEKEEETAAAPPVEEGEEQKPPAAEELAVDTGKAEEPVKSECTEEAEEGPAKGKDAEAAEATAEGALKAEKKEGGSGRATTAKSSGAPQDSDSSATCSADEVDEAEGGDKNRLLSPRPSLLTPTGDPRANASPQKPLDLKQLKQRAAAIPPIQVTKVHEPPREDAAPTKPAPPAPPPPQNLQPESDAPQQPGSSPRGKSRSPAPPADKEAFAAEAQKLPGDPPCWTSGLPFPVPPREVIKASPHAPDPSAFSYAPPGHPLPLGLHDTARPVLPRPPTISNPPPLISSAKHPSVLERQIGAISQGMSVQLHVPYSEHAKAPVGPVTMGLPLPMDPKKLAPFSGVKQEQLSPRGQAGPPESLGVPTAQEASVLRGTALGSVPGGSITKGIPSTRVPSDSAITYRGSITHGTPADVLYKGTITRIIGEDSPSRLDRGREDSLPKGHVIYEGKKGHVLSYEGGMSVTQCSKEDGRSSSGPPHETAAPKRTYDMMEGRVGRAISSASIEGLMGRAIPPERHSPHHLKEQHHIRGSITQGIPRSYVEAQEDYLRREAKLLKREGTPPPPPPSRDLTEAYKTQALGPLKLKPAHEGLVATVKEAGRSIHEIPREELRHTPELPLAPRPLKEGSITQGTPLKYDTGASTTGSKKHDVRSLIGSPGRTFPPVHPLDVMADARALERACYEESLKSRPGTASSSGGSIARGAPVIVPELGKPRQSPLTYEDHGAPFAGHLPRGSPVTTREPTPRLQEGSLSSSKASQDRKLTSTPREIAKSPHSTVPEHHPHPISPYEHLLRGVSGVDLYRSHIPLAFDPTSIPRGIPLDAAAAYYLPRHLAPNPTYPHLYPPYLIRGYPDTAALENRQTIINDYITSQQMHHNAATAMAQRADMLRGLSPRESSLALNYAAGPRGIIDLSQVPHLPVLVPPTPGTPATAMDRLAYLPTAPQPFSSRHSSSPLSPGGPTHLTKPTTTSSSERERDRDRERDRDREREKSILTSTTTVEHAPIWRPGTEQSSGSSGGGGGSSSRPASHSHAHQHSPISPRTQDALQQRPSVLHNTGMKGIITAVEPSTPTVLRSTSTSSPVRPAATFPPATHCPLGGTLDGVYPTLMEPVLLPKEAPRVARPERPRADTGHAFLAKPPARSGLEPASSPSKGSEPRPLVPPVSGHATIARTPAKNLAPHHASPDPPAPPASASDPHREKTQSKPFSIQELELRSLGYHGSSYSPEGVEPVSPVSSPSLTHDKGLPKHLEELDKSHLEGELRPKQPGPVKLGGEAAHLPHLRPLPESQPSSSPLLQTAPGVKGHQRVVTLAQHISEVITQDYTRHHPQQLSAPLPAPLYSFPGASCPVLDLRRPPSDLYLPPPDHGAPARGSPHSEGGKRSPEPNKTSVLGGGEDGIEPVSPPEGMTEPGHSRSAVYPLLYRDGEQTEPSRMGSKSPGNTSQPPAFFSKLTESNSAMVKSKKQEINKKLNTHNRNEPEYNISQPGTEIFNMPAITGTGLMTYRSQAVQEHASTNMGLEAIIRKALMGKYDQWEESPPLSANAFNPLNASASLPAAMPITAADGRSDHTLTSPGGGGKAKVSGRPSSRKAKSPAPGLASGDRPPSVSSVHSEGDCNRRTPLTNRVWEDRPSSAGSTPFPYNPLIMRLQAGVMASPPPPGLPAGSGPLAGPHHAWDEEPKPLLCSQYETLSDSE

SMILES: CCOC(=O)Cc1csc(NC(=O)NC2(C(F)(F)F)Oc3ccccc3O2)n1
IC50 [1]: > 59.6 µM (not active) | IC50 [2]: 17.5 µM (active) | IC50 [3]: 3.02 µM (active)

SMILES: Cc1cc(N2C(=O)C(O)=C(C(=O)c3cc4ccccc4o3)C2c2ccc(Br)cc2)no1 (configuration not stated)
IC50 [4]: > 39.8 µM (not active) | IC50 [5]: 2.92 µM (active) | EC50 [6]: 2.78 µM (active) | AC50 [7]: 17.5 µM (active) | EC50 [8]: 2.01 µM (active)

EC50 [9]: 1.36 µM (active) | EC50 [10]: > 29.9 µM (inactive) | EC50 [11]: > 29.9 µM (not active)
SMILES: O=S(=O)(Nc1ccccc1N1CCOCC1)c1ccc(Cl)s1

AC50 [12]: 39.8 µM (inconclusive)
SMILES: CC(C)C[C@@H](CC(=O)N[C@H](CC(=O)N[C@@H]1CCCC[C@H]1C(=O)N[C@H](CC(=O)N[C@@H](CCC(=O)O)CC(=O)O)CC(C)C)C(C)C)NC(=O)[C@@H]1CCCC[C@H]1N
